Measurements reported in patent US10624917B2, “Compositions and methods useful for treating or preventing liver diseases or disorders, and promoting weight loss” (YALE UNIVERSITY, priority 2014, dated 2020).

What was measured:
[1] = system: active caspase-1 / pro-IL-1β in PECs; assay: Western blot of caspase-1 and pro-IL-1β in PECs; format: cell-based, mouse; conditions: for up-regulation of Pro-IL-1β: 6 hours, FIG. 3C
Protocol: FIGS. 2A-2H illustrate the finding that adenosine mediates increase in IL-1β via the A2A receptor and amplifies signal 1 and signal 2 pathways. FIG. 2A: LPS primed PECs were treated with NECA (10 μM) in the presence or absence of […] different adenosine receptor antagonists for A1 (DPCPX, 10 nM), A2A (ZM 241385, 10 μM), A2B (MRS1706, 10 nM), A3 (MRS1523, 5 μM), or their combinations for 1 hour, and pulsed with ATP for 20 min. FIGS. 2A-2B: A2A receptor specific agonist (CGS21680) and antagonist ZM 241385 increase and block IL-1β production respectively. […] FIG. 2D: PEC's from A2A receptor deficient cells have low IL-1β production, which is not increased by NECA and CGS 21680. FIG. 2E: CGS21680 increases induction of Il1b mRNA expression, and this was decreased in A2A receptor deficient cells. FIG. 2F: Loss of the A2A receptor in macrophages results in much lower levels of Il1b protein A expression in response to LPS. FIG. 2G: CGS21680 and […] increases and decreases production of cleaved caspase-1, respectively. FIG. 2H: The production of cleaved caspase-1 is decreased in A2A receptor deficient macrophages. Data are expressed as the mean±SD from at least three independent experiments Immunoblots shown are representative results from at least three independent experiments. p<0.05 determined by Student's t-test.
FIGS. 3A-3I illustrate the finding that adenosine supersedes LPS induced tolerance and increases IL-1β production by upregulating transcription of pro-IL-1β via cAMP-PKA pathway. PECs were used in all of the following experiments. FIG. 3A: Primed (pri) with LPS (100 ng/ml) for 16 hours followed by stimulation (stim) with LPS (100 ng/ml), or NECA (10 μM) or CGS21680 (10 μM) in the presence or absence of LPS (100 ng/ml) for 6 hours. FIG. 3B: Treated with forskolin for 6 hours as indicated doses with and without LPS priming FIG. 3C: Treated with or without NECA (10 μM), CGS21680 (10 μM) or db-cAMP (200 μM) for 6 hours. FIG. 3D: LPS primed and treated with NECA or CGS21680 in the presence and absence of SQ22536, H89 and PKi. FIG. 3E: Primed with LPS for 16 hours and treated with ATP for 20 min, followed by CGS 21680 in the presence or absence of the adenylyl cyclase and PKA inhibitors SQ22536 and H-89. FIG. 3F: Primed with LPS and treated with or without NECA (10 μM) or db-cAMP (200 μM) for 6 hours. FIG. 3G: Treated with or without CGS21680 (10 μM) for 3 hours, and transcription was stopped by adding […] actinomycin D, and RNA samples collected at indicated times-points. FIG. 3H: LPS primed PECs obtained from wild type or A2AR-cKO mice were stimulated with NECA (10 μM) for 6 hours. The cells were harvested and RNA isolated after each treatment and the gene expression of Il1b and other genes as indicated quantified by real-time PCR using specific primers. FIG. 3I: Primed with LPS for 16 hours and treated with ATP for 20 min, followed by CGS 21680 in the presence or absence of SQ22536 or H-89 Immunoblot analysis of the proIL-1β caspase-1 in cell lysate was performed by specific […] and anti caspase-1 p10 antibodies (FIGS. 3C, 3E-3F, 3I). Data are expressed as the mean±SD from three independent experiments Immunoblots shown are representative results from at least three independent experiments. *p<0.05 determined by Student's t-test.
Liver tissue lysates or PECs were lysed in RIPA buffer (10 mM phosphate buffer pH 7.4, 150 mM NaCl, 1% NP-40, 0.5% sodium deoxycholate, 0.1% SDS) supplemented with complete protease inhibitor cocktail (Roche) and 2 mM dithiothreitol. Lysates were resolved in 4-12% Tris-glycine gradient gels (Invitrogen) and transferred to nitrocellulose (Invitrogen) by electro-blotting. The following antibodies were used: rabbit anti-caspase-1 p10 (SC-514, Santa Cruz), goat anti-mouse IL-1β (BAF401, R&D Systems), Rabbit antimouse HIF-1α (NB100-449, Novus Biologicals, Littleton, Colo.).

[2] = system: Il1b and other genes in PECs; assay: Quantitative real-time RT-PCR gene expression in PECs; format: cell-based, mouse; conditions: peritoneal macrophages, FIG. 2E
[3] = system: wild type and Casp-1−/− mice injected with TAA; assay: TAA induced liver fibrosis with co-injection of adenosine agonist; format: in vivo, mouse; conditions: wildtype mice
Protocol: FIGS. 16A-16B illustrate increased liver fibrosis in wild-type control but not caspase-1-deficient mice in response to adenosine agonist. FIG. 16A: Wild type and Casp-1−/− mice were injected intraperitoneally with TAA with co-injection of CGS21680 (2.5 mg kg^−1 body weight) or vehicle. The liver tissues from each group were collected […] after first injection, and tissue collagen visualized by Sirius red staining, and the representative images are shown. Scale bar corresponds to 500 μm. FIG. 16B: Total liver RNA was extracted and Timp1 mRNA levels quantified. Data are expressed as the mean±SD from three independent experiments. * p<0.05 determined by Student's t-test.
To further test the effect of increased adenosine signaling on fibrosis wild-type and caspase-1 deficient mice were injected with TAA with and without co-injection of the adenosine agonist CGS21680. After one week, liver tissues were stained for collagen with Sirus Red. CGS21680 increased TAA induced liver fibrosis and Timp1 expression in wildtype but not caspase-1 deficient mice (FIGS. 16A-16B).

[4] = system: IL-1β production in murine peritoneal macrophages (PECs); assay: IL-1β secretion (ELISA) by primed, ATP-pulsed peritoneal macrophages (PECs); format: cell-based, mouse; conditions: LPS and monosodium urate (MSU) crystals

Row | Compound | up-regulation of Pro-IL-1β [1] | active caspase-1 ([1]; compound alone) | active (cleaved) caspase-1 ([1]; in response to LPS/ATP) | induction of Il1b mRNA expression [2] | TAA induced liver fibrosis [3] | Timp1 expression [3] | IL-1β production [4]
1 | CCNC(=O)[C@H]1O[C@@H](n2cnc3c(N)nc(NCCc4ccc(CCC(=O)O)cc4)nc32)[C@H](O)[C@@H]1O [CGS21680] | induced up-regulation | did not result in detectable active caspase-1 | increases | increases | increased | increased | –
2 | CCNC(=O)[C@H]1O[C@@H](n2cnc3c(N)ncnc32)[C@H](O)[C@@H]1O [NECA, 5′-(N-ethylcarboxamido) adenosine] | induced up-regulation | – | – | – | – | – | increased
